Read-outs that look alike come from different tables or passages of the source.
Target: T1, Fatty acid synthase (FAS) (Saccharomyces cerevisiae, UniProt P07149+P19097)
T1 construct: gene FAS1; with FAS2 (alpha subunit of the yeast FAS complex)
Test: FAS activity (absorbance at […] nm, malonyl CoA/acetyl CoA/NADPH) in ammonium sulfate-precipitated yeast protein extract
Format: biochemical

T1 sequence (P19097 whole entry): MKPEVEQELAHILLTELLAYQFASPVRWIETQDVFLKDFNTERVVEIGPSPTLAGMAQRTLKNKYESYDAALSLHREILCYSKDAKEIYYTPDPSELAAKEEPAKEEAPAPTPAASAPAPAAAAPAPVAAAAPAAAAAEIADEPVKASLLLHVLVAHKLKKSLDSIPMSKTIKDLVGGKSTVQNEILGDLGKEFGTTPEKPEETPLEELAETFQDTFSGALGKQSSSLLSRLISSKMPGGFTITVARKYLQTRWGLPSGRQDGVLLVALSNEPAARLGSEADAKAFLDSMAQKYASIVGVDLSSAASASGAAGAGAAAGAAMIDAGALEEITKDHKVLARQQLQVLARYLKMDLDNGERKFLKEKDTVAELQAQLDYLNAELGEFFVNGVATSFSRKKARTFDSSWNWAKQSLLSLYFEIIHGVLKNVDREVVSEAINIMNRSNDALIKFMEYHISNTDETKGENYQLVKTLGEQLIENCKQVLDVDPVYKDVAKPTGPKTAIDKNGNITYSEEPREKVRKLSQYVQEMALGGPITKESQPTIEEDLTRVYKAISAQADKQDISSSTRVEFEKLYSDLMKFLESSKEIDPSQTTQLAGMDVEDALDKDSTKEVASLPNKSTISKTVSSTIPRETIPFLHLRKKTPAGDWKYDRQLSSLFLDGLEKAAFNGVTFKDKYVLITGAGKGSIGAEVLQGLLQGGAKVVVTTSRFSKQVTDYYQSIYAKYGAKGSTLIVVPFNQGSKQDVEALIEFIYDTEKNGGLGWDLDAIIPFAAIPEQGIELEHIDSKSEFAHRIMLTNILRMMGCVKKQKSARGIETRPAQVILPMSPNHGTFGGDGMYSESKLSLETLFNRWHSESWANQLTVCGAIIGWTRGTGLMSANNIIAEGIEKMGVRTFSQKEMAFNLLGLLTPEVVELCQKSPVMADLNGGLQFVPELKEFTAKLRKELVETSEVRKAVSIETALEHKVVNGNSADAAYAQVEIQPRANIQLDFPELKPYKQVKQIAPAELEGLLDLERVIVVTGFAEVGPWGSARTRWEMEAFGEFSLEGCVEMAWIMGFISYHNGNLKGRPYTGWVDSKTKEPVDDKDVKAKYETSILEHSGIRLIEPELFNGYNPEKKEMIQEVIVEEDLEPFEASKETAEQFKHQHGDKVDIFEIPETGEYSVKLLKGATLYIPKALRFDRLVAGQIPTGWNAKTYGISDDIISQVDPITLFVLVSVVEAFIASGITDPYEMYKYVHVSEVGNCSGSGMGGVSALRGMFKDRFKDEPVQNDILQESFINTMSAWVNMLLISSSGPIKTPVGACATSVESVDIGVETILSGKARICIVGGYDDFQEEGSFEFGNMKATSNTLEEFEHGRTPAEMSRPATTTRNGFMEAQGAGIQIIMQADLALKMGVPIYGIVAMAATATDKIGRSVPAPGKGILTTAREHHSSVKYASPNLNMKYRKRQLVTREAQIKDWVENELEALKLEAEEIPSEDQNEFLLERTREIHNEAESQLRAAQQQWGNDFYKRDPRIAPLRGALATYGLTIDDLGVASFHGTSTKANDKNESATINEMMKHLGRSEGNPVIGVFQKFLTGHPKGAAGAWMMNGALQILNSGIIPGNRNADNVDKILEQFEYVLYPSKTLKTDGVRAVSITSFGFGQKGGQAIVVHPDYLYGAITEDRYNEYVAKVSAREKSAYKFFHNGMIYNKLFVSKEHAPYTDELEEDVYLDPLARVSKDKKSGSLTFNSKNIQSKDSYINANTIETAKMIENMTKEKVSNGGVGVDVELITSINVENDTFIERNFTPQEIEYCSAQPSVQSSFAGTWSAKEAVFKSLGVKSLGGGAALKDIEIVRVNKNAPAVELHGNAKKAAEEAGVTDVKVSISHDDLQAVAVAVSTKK
T1 sequence (P07149 whole entry): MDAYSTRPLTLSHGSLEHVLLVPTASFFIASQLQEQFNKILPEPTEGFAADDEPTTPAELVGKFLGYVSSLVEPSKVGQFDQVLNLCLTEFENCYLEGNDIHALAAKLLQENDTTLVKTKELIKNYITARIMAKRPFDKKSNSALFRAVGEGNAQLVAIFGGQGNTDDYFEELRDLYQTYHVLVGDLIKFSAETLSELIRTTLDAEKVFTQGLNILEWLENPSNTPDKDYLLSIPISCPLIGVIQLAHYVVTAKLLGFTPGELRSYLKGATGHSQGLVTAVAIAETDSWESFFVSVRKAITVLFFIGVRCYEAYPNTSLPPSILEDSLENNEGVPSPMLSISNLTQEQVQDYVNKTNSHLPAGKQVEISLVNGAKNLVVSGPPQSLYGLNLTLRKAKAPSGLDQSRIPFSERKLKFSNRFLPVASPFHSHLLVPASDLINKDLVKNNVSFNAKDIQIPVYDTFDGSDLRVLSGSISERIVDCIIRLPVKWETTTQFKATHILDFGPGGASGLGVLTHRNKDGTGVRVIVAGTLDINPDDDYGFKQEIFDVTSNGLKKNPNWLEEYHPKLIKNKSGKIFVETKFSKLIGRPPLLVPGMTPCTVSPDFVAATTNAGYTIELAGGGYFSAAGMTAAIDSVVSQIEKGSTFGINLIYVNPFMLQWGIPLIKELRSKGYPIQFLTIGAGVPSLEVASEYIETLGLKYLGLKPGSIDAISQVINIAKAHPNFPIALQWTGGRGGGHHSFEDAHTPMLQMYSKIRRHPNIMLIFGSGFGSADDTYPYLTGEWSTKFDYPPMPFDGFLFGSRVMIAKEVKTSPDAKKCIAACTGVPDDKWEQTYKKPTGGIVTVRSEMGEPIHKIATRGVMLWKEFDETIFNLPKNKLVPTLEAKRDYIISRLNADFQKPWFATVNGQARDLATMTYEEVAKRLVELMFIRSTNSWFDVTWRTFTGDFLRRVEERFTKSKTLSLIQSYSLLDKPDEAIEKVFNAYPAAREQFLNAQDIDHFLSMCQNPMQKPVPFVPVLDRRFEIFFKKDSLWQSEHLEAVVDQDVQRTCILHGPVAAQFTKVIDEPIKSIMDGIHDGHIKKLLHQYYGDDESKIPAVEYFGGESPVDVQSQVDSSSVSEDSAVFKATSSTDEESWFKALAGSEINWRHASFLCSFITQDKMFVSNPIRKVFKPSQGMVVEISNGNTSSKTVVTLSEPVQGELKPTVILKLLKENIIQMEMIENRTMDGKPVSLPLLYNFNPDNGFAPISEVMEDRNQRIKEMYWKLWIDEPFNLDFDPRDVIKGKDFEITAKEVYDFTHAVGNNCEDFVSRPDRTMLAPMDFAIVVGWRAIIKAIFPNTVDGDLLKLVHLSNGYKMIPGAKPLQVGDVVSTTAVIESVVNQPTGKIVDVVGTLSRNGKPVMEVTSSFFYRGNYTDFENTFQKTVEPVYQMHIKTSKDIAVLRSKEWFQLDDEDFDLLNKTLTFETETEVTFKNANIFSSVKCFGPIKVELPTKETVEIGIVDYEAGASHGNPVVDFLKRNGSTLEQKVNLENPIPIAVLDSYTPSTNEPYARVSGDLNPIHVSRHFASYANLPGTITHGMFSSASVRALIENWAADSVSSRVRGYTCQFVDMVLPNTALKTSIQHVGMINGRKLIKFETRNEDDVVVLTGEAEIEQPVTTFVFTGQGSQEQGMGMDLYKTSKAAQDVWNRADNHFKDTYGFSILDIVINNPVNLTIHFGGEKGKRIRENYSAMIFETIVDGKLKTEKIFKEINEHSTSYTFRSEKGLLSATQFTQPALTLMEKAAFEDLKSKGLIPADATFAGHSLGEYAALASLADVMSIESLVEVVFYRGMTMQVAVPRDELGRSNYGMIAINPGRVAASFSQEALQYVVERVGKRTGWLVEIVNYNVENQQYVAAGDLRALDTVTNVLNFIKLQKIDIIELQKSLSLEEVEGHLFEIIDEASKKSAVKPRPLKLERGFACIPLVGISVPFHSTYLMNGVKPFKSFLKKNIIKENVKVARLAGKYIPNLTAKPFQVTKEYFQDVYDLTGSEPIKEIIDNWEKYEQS

Structure (SMILES): O=c1c(O)c(-c2ccc(O)c(O)c2)oc2cc(O)cc(O)c12 [QCT, Quercetin]
- IC50 (read-out: IC50 (μg/mL) (converted)): 56.6 µM

Structure (SMILES): O=C(/C=C/c1ccccc1)c1ccccc1 [T-CHL, Trans-chalcone]
- IC50 (read-out: IC50 (converted)): 328 µM

Source: publication PMC3849095, “Trans-chalcone and quercetin down-regulate fatty acid synthase gene expression and reduce ergosterol content in the human pathogenic dermatophyte Trichophyton rubrum” (BMC Complementary and Alternative Medicine, 2013)
